Test results reported in ChEMBL document CHEMBL1139649, “Hetaryl imidazoles: a novel dual inhibitors of VEGF receptors I and II” (Bioorg Med Chem Lett, 2006).

target: cAMP-dependent protein kinase (PKA) (Homo sapiens) (UniProt P22694+P17612+P22612); assay: Inhibition against PKA at 10 uM by HTRF method; assay type: protein assay; design: scale not given: the % may be the effect or the level left

| Activity | SMILES |
| --- | --- |
| < 30% | Cn1cnc(NCc2ccncc2)c1-c1nnc(Nc2ccc(Cc3ccccc3)cc2)o1 |
| < 30% | Cn1cnc(NCc2ccncc2)c1-c1nnc(Nc2ccc(C(C)(C)C)cc2)o1 |
| < 30% | Cc1ccccc1Nc1nnc(-c2c(NCc3ccncc3)ncn2C)o1 |

target: Insulin-like growth factor 1 receptor (Homo sapiens) (UniProt P08069); assay: […] against IGF1R at 10 uM by HTRF method
Sequence (P08069 31-736 limits assumed): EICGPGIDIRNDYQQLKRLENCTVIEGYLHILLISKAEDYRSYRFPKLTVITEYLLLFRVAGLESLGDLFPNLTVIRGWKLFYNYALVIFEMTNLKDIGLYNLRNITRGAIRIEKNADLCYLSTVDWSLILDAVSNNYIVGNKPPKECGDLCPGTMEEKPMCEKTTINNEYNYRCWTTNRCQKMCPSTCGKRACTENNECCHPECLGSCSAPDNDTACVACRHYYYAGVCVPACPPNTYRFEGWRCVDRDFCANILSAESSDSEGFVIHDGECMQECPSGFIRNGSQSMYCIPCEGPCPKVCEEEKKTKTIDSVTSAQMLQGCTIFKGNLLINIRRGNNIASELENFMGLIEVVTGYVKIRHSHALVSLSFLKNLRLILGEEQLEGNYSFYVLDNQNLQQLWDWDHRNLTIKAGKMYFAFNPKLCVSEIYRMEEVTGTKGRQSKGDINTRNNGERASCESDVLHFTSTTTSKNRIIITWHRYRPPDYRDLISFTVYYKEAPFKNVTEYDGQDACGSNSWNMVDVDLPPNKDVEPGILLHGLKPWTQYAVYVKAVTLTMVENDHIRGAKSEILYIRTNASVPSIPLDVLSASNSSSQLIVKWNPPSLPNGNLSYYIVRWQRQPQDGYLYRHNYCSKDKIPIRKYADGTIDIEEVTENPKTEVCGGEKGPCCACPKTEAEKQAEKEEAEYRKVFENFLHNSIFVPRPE
Sequence (P08069 741-1367 limits assumed): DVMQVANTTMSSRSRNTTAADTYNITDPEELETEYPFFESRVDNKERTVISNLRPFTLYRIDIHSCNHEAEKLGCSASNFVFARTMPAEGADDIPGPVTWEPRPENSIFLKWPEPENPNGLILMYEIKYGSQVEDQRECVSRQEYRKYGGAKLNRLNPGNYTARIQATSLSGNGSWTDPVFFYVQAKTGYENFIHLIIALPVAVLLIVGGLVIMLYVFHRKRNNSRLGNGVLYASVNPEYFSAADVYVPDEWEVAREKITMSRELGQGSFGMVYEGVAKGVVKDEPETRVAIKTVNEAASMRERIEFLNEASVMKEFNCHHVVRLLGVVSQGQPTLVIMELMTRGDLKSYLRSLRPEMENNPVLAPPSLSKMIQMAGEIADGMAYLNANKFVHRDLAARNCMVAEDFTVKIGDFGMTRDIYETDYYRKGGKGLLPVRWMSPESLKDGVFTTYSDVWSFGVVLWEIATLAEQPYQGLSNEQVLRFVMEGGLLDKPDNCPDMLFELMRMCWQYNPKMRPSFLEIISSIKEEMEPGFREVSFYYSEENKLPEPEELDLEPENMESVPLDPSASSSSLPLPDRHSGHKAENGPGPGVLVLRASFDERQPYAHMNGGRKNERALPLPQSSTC

| Activity | SMILES |
| --- | --- |
| < 30% | Cn1cnc(NCc2ccncc2)c1-c1nnc(Nc2ccc(Cc3ccccc3)cc2)o1 |
| < 30% | Cn1cnc(NCc2ccncc2)c1-c1nnc(Nc2ccc(C(C)(C)C)cc2)o1 |
| < 30% | Cc1ccccc1Nc1nnc(-c2c(NCc3ccncc3)ncn2C)o1 |

target: Bcr/Abl fusion protein (Homo sapiens) (UniProt P00519+P11274); assay: Inhibition of bcr-Abl at 10 uM by HTRF method; assay type: protein assay; design: scale not given: the % may be the effect or the level left

| Activity | SMILES |
| --- | --- |
| < 30% | Cn1cnc(NCc2ccncc2)c1-c1nnc(Nc2ccc(Cc3ccccc3)cc2)o1 |
| < 30% | Cn1cnc(NCc2ccncc2)c1-c1nnc(Nc2ccc(C(C)(C)C)cc2)o1 |
| < 30% | Cc1ccccc1Nc1nnc(-c2c(NCc3ccncc3)ncn2C)o1 |

target: Cyclin-dependent kinase 2 (Homo sapiens) (UniProt P24941); assay: […] against Cdk2 at 10 uM by HTRF method

| Percent inhibition | SMILES |
| --- | --- |
| < 30% | Cn1cnc(NCc2ccncc2)c1-c1nnc(Nc2ccc(Cc3ccccc3)cc2)o1 |
| < 30% | Cn1cnc(NCc2ccncc2)c1-c1nnc(Nc2ccc(C(C)(C)C)cc2)o1 |
| < 30% | Cc1ccccc1Nc1nnc(-c2c(NCc3ccncc3)ncn2C)o1 |

target: RAC-alpha serine/threonine-protein kinase (Homo sapiens) (UniProt P31749); assay: […] against PKB/Akt at 10 uM by HTRF method

| Activity | SMILES |
| --- | --- |
| < 30% | Cn1cnc(NCc2ccncc2)c1-c1nnc(Nc2ccc(Cc3ccccc3)cc2)o1 |
| < 30% | Cn1cnc(NCc2ccncc2)c1-c1nnc(Nc2ccc(C(C)(C)C)cc2)o1 |
| < 30% | Cc1ccccc1Nc1nnc(-c2c(NCc3ccncc3)ncn2C)o1 |

target: Glycogen synthase kinase-3 beta (Homo sapiens) (UniProt P49841); assay: Inhibition against GSK3-beta at 10 uM by HTRF method; design: scale not given: the % may be the effect or the level left
Sequence (P49841 whole entry, looked up): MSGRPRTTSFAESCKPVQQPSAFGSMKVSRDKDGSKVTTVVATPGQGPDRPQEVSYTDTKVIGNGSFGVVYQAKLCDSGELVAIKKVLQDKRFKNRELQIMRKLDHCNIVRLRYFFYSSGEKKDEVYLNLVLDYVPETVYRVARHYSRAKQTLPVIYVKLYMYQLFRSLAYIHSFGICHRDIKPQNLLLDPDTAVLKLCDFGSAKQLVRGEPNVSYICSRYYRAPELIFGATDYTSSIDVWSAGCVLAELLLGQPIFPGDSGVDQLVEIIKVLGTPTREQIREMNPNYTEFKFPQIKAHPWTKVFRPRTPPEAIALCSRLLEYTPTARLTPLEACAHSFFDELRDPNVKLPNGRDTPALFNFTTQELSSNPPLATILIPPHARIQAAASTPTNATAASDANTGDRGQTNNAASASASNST

| Activity | SMILES |
| --- | --- |
| < 30% | Cn1cnc(NCc2ccncc2)c1-c1nnc(Nc2ccc(Cc3ccccc3)cc2)o1 |
| < 30% | Cn1cnc(NCc2ccncc2)c1-c1nnc(Nc2ccc(C(C)(C)C)cc2)o1 |
| < 30% | Cc1ccccc1Nc1nnc(-c2c(NCc3ccncc3)ncn2C)o1 |

target: Fibroblast growth factor receptor 1 (Homo sapiens) (UniProt P11362); assay: Percent inhibition against FGFR1 at 10 uM by HTRF method; design: scale not given: the % may be the effect or the level left

| Activity | SMILES |
| --- | --- |
| < 30% | Cn1cnc(NCc2ccncc2)c1-c1nnc(Nc2ccc(Cc3ccccc3)cc2)o1 |
| < 30% | Cn1cnc(NCc2ccncc2)c1-c1nnc(Nc2ccc(C(C)(C)C)cc2)o1 |
| < 30% | Cc1ccccc1Nc1nnc(-c2c(NCc3ccncc3)ncn2C)o1 |

target: Receptor-type tyrosine-protein kinase FLT3 (Homo sapiens) (UniProt P36888); assay: Inhibition of Flt3 at 10 uM by HTRF method; design: scale not given: the % may be the effect or the level left

| Activity | SMILES |
| --- | --- |
| < 30% | Cn1cnc(NCc2ccncc2)c1-c1nnc(Nc2ccc(Cc3ccccc3)cc2)o1 |
| < 30% | Cn1cnc(NCc2ccncc2)c1-c1nnc(Nc2ccc(C(C)(C)C)cc2)o1 |
| < 30% | Cc1ccccc1Nc1nnc(-c2c(NCc3ccncc3)ncn2C)o1 |

target: Epidermal growth factor receptor (Homo sapiens) (UniProt P00533); assay: […] against ErbB1 at 10 uM by HTRF method

| Percent inhibition | SMILES |
| --- | --- |
| < 30% | Cn1cnc(NCc2ccncc2)c1-c1nnc(Nc2ccc(Cc3ccccc3)cc2)o1 |
| < 30% | Cn1cnc(NCc2ccncc2)c1-c1nnc(Nc2ccc(C(C)(C)C)cc2)o1 |
| < 30% | Cc1ccccc1Nc1nnc(-c2c(NCc3ccncc3)ncn2C)o1 |

target: T1, Ephrin type-B receptor 4 (Homo sapiens) (UniProt P54760); assay: Percent inhibition against EphB4 at 10 uM by HTRF method; design: scale not given: the % may be the effect or the level left
T1 sequence (whole entry): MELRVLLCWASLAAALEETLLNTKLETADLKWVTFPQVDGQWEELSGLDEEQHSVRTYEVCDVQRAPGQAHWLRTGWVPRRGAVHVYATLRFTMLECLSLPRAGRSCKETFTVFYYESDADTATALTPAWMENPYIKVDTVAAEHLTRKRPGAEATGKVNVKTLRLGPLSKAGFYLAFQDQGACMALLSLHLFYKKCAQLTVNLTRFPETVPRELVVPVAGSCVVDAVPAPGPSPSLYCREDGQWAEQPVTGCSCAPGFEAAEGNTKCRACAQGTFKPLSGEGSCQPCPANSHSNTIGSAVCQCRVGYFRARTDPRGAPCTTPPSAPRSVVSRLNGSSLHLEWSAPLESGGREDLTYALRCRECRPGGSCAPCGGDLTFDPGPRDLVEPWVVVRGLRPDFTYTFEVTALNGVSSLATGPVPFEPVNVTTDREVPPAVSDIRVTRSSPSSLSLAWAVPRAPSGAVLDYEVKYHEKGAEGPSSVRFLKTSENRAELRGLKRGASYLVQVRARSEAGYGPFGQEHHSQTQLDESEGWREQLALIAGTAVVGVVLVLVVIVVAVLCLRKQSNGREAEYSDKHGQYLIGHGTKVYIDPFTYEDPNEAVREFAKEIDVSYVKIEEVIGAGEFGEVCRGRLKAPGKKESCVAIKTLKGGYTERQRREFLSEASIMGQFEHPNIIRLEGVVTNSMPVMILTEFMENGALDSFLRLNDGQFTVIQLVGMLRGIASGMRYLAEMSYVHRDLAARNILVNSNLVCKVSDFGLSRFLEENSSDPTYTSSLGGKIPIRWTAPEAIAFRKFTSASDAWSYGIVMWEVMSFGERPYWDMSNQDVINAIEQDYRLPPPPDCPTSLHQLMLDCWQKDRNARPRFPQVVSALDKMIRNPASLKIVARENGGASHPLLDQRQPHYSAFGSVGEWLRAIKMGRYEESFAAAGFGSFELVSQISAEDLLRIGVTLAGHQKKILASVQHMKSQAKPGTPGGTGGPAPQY

| Activity | SMILES |
| --- | --- |
| < 30% | Cn1cnc(NCc2ccncc2)c1-c1nnc(Nc2ccc(Cc3ccccc3)cc2)o1 |
| < 30% | Cn1cnc(NCc2ccncc2)c1-c1nnc(Nc2ccc(C(C)(C)C)cc2)o1 |
| < 30% | Cc1ccccc1Nc1nnc(-c2c(NCc3ccncc3)ncn2C)o1 |

target: Cyclin-dependent kinase 5 (Homo sapiens) (UniProt Q00535); assay: […] against Cdk5 at 10 uM by HTRF method
Sequence (Q00535 whole entry, looked up): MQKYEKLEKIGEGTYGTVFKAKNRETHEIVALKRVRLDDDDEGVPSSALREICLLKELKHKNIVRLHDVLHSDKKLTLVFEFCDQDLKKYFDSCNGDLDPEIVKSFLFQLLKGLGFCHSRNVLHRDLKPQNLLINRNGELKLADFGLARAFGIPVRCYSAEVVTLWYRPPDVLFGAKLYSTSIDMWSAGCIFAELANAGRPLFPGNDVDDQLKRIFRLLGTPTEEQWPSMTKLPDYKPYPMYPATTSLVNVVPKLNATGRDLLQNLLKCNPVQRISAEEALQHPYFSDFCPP

| Activity | SMILES |
| --- | --- |
| < 30% | Cn1cnc(NCc2ccncc2)c1-c1nnc(Nc2ccc(Cc3ccccc3)cc2)o1 |
| < 30% | Cn1cnc(NCc2ccncc2)c1-c1nnc(Nc2ccc(C(C)(C)C)cc2)o1 |
| < 30% | Cc1ccccc1Nc1nnc(-c2c(NCc3ccncc3)ncn2C)o1 |

target: Vascular endothelial growth factor receptor 1 (Homo sapiens, UniProt P17948); assay: Inhibition of VEGFR1 by enzymatic assay
Sequence (P17948 whole entry): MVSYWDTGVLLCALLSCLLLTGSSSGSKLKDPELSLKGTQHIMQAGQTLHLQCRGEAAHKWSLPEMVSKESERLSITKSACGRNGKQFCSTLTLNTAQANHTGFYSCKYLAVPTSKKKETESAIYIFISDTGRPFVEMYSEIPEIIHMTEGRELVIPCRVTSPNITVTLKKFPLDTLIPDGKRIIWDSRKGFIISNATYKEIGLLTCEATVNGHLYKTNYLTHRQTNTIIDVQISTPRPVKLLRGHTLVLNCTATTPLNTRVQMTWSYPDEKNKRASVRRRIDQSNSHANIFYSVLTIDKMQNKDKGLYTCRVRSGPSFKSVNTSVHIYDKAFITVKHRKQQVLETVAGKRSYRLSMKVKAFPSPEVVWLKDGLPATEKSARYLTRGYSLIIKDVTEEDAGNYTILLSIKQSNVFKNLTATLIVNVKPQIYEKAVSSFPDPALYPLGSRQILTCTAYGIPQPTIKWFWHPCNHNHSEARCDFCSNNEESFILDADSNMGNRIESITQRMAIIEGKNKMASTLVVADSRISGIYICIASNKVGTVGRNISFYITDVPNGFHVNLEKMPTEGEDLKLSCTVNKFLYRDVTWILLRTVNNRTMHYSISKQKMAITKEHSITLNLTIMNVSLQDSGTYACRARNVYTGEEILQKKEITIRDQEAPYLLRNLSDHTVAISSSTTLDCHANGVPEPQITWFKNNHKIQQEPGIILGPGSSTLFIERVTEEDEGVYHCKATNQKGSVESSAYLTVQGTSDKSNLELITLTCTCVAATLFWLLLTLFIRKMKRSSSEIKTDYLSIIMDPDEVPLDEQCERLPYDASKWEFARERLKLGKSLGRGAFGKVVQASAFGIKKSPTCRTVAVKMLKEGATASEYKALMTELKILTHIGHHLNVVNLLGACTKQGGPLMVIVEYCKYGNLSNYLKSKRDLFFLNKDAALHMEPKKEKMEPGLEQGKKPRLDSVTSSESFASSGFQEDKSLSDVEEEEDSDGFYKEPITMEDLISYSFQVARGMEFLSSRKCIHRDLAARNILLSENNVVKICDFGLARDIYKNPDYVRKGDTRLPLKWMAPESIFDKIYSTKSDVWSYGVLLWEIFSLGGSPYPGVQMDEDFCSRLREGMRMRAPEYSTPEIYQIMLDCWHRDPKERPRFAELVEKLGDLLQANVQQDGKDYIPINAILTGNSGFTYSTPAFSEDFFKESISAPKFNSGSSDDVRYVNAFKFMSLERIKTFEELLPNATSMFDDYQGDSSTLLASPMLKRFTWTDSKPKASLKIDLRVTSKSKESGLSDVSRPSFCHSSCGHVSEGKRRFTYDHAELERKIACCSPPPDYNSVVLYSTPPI

| IC50 | SMILES |
| --- | --- |
| > 10000 nM | Cn1cnc(NCc2ccncc2)c1-c1nnc(Nc2ccc(Cc3ccccc3)cc2)o1 |
| 890 nM | Cn1cnc(NCc2ccncc2)c1-c1nnc(Nc2ccc(C(C)(C)C)cc2)o1 |
| > 10000 nM | Cc1ccccc1Nc1nnc(-c2c(NCc3ccncc3)ncn2C)o1 |

target: T2, Vascular endothelial growth factor receptor 2 (Homo sapiens, UniProt P35968); assay: Inhibition of VEGFR2 in 293 adenovirus transfected kidney cells by cell-based ELISA assay

| IC50 | SMILES |
| --- | --- |
| 1050 nM | Cn1cnc(NCc2ccncc2)c1-c1nnc(Nc2ccc(C(C)(C)C)cc2)o1 |

target: T2, Vascular endothelial growth factor receptor 2; assay: Inhibition of VEGFR2 by enzymatic assay

| IC50 | SMILES |
| --- | --- |
| > 10000 nM | Cn1cnc(NCc2ccncc2)c1-c1nnc(Nc2ccc(Cc3ccccc3)cc2)o1 |
| 380 nM | Cn1cnc(NCc2ccncc2)c1-c1nnc(Nc2ccc(C(C)(C)C)cc2)o1 |
| > 10000 nM | Cc1ccccc1Nc1nnc(-c2c(NCc3ccncc3)ncn2C)o1 |

target: Hepatocyte growth factor receptor (Homo sapiens) (UniProt P08581); assay: Percent inhibition against c-Met at 10 uM by HTRF method; design: scale not given: the % may be the effect or the level left
Sequence (P08581 whole entry): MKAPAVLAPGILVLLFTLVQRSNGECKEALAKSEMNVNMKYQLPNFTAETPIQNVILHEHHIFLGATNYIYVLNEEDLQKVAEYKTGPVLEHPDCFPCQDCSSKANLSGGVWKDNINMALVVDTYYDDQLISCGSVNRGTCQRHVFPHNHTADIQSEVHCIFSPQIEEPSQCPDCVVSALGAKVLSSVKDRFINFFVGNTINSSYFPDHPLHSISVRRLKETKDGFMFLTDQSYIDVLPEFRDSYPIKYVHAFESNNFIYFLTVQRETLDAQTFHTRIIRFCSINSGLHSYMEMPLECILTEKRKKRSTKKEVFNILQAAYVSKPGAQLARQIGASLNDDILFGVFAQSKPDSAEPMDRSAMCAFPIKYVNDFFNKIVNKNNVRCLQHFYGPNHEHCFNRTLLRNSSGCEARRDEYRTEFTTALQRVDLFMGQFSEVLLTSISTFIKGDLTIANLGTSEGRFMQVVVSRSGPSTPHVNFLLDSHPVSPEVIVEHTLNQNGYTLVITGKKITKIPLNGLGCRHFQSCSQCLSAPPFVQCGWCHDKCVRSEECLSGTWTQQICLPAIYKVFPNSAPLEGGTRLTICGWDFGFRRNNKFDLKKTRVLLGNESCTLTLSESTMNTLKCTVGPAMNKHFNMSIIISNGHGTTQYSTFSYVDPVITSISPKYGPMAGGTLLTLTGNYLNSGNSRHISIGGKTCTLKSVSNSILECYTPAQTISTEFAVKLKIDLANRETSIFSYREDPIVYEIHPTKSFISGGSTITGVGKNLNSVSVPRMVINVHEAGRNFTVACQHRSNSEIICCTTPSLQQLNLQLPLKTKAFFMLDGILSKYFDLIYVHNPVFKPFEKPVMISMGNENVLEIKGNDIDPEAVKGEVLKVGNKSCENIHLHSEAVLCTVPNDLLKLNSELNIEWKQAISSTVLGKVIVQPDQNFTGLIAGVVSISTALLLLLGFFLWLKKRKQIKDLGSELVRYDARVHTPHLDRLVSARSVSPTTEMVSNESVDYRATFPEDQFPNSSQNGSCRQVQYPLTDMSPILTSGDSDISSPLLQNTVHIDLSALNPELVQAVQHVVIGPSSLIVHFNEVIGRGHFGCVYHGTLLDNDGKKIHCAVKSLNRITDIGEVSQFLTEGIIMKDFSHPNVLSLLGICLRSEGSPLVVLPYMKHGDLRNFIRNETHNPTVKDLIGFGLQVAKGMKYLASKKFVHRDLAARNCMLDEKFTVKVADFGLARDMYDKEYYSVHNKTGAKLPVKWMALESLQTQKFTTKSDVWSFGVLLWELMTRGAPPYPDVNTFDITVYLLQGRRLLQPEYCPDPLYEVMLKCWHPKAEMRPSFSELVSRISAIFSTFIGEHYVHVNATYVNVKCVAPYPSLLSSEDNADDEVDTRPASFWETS

| Activity | SMILES |
| --- | --- |
| < 30% | Cn1cnc(NCc2ccncc2)c1-c1nnc(Nc2ccc(Cc3ccccc3)cc2)o1 |
| < 30% | Cn1cnc(NCc2ccncc2)c1-c1nnc(Nc2ccc(C(C)(C)C)cc2)o1 |
| < 30% | Cc1ccccc1Nc1nnc(-c2c(NCc3ccncc3)ncn2C)o1 |

target: Receptor tyrosine-protein kinase erbB-2 (Homo sapiens) (UniProt P04626); assay: […] against ErbB2 at 10 uM by HTRF method

| Activity | SMILES |
| --- | --- |
| < 30% | Cn1cnc(NCc2ccncc2)c1-c1nnc(Nc2ccc(Cc3ccccc3)cc2)o1 |
| < 30% | Cn1cnc(NCc2ccncc2)c1-c1nnc(Nc2ccc(C(C)(C)C)cc2)o1 |
| < 30% | Cc1ccccc1Nc1nnc(-c2c(NCc3ccncc3)ncn2C)o1 |
